Like-named read-outs stand apart in the source and are kept apart here.
How the values were obtained:
GPR139 = target: T1, GPR139 (Homo sapiens, UniProt Q6DWJ6); assay: GPR139 Agonist titration / agonist counterscreen assay (calcium detection, HEK-GPR139 cells); assay type: cell-based; design: expressed in transfected cells; host or cells: HEK Aequorin cells, Maxcyte transient transfection; details: GPR139 Agonist Activity; for EC50: read-out: EC50; for Averaged Max % Response (±St. Dev.): activity relative to known control
T1 sequence (Q6DWJ6 1-353): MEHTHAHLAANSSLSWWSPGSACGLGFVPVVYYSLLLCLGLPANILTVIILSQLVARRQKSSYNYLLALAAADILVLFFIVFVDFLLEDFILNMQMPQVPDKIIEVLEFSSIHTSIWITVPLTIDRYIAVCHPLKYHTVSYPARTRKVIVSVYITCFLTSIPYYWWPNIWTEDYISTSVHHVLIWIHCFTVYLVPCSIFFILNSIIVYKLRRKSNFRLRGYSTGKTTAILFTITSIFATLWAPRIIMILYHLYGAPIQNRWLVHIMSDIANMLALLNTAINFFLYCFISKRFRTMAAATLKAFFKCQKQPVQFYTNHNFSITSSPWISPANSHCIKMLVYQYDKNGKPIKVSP
Method: GPR activity was assessed using a calcium detection assay. […] Negative control samples were treated with DMSO. […] Intracellular calcium was measured using Calcium 5.

parental HEK cells = assay: HEK parental Agonist Counterscreen Assay (non-transfected cells); assay type: cell-based; details: for Averaged Max % Response (±St. Dev.): activity relative to known control
Text: The high control for the agonist counterscreen was Forskolin not acetylcholine.

[1] = HEK Agonist Activity section of Table 4 (parental HEK counterscreen)
[2] = values printed in E-notation without unit
[3] = Homo sapiens, HEK293, HEK Agonist Activity, parental non-transfected HEK cells
[4] = Homo sapiens, HEK293, HEK Agonist Activity section of Table 4 (parental HEK counterscreen)

Row | SMILES | Efficiency Ligand (GPR139) | Hill Slope (GPR139) | Lipophilic Efficiency (logD) (GPR139) | Lipophilic Efficiency (logP) (GPR139) | EC50 (GPR139; HEK-GPR139 cells) [nM] | Averaged Max % Response (±St. Dev.) (GPR139) [%] | Lipophilic Efficiency (logD) (parental HEK cells; HEK Agonist Activity section) | Lipophilic Efficiency (logP) (parental HEK cells; HEK Agonist Activity section) | EC50 (parental HEK cells; [1]) [nM] | Averaged Max % Response (±St. Dev.) (parental HEK cells; HEK Agonist Activity section) [%] | Lipophilic Efficiency (logD) (GPR139; based on logD) | Lipophilic Efficiency (logP) (GPR139; based on logP) | Hill Slope (GPR139; fitted dose-response curve) | Efficiency Ligand (GPR139; ligand efficiency) | EC50 (GPR139; [2]) [nM] | Lipophilic Efficiency (logD) (parental HEK cells; HEK Agonist Activity) | Lipophilic Efficiency (logP) (parental HEK cells; HEK Agonist Activity) | Averaged Max % Response (±St. Dev.) (parental HEK cells; HEK Agonist Activity) [%] | EC50 (parental HEK cells; [3]) [nM] | EC50 (parental HEK cells; [4]) [nM]
1 | O=C(CSCc1cccc2ccccc12)Nc1c[nH]c(=O)[nH]c1=O [SR-01000296110] | 0.35 | 1.48 | 4.77 | 4.76 | 857 | 96.78 ± 9.37 | 3.56 | 3.55 | > 14100 | 3.41 ± 3.54 | – | – | – | – | – | – | – | – | – | –
2 | CC12C=CC3(CN(Cc4ccccc4)C(=O)C3C1C(=O)NCc1ccco1)O2 (stereo not shown) [SR-01000582958] | – | – | – | – | – | 101.07 ± 20.22 | 3.51 | 3.51 | > 13400 | 10.03 ± 5.09 | 5.28 | 5.28 | 0.87 | 0.33 | 228 | – | – | – | – | –
3 | COc1ccc(C(C)N2CC34C=CC(O3)C(C(=O)OCC(C)C)C4C2=O)cc1 (stereo not shown) [SR-01000114500] | – | – | – | – | – | 93.61 ± 11.95 | 2.32 | 2.32 | > 14100 | 4.75 ± 6.36 | 4.21 | 4.21 | 1.06 | 0.34 | 184 | – | – | – | – | –
4 | Cc1cccc(NC(=O)NCCc2ccc3c(c2)CCCN3C)c1 [SR-01000923247] | – | – | – | – | – | 95.66 ± 12.25 | – | – | – | – | 3.21 | 3.21 | 0.45 | 0.43 | 37.1 | 0.63 | 0.63 | 20.62 ± 4.90 | > 14100 | –
5 | COCCn1c(C)c(C(=O)NC(C)CCc2ccccc2)c2nc3ccccc3nc21 (stereo not shown) [SR-01000918134] | – | – | – | – | – | 116.95 ± 4.02 | 0.66 | 0.66 | – | −11.92 ± 3.45 | 3.05 | 3.05 | – | 0.33 | – | – | – | – | – | > 14100
6 | O=C(CCC1CCCC1)NNC(=O)CSc1ccc(Cl)cc1 [SR-01000069439] | – | – | – | – | – | 123.43 ± 12.00 | 1.55 | 1.55 | – | 1.51 ± 2.29 | 3.93 | 3.93 | 0.62 | 0.46 | 61.7 | – | – | – | – | > 14900
7 | Cc1ccccc1C(=O)NNC(=O)C(C)Oc1ccc(Cl)cc1Cl (stereo not shown) [SR-01000410694] | – | – | – | – | – | 91.99 ± 13.68 | 0.98 | 0.95 | – | 10.08 ± 3.68 | 2.98 | 2.96 | 1.03 | 0.41 | 100 | – | – | – | – | > 10200
8 | O=c1c2c([nH]c3nc(NCc4ccccc4Cl)nn13)CCC2 [SR-01000153956] | 0.38 | 1.89 | 2.80 | 2.80 | 1100 | 93.85 ± 32.13 | 1.70 | 1.70 | – | 21.15 ± 4.99 | – | – | – | – | – | – | – | – | – | > 14100
9 | O=C(Cn1cnc2ccccc21)NCCCn1ccc2ccccc21 [SR-01000926263] | – | – | – | – | – | 84.49 ± 4.10 | 2.29 | 2.29 | – | 12.91 ± 4.81 | 4.34 | 4.34 | 1.10 | 0.39 | 127 | – | – | – | – | > 14100
10 | Cc1cccc(-n2cnc3cc(C(=O)NCc4ccc5c(c4)OCO5)ccc32)c1 [SR-01000579592] | 0.28 | – | 1.75 | 1.75 | > 1500 | 96.78 ± 10.47 | 0.80 | 0.80 | – | −14.67 ± 10.75 | – | – | – | – | – | – | – | – | – | > 13300
11 | COc1ccc(Cl)cc1C(=O)NNC(=O)CCc1ccc([N+](=O)[O-])cc1 [SR-01000054340] | 0.33 | 0.74 | 3.45 | 3.43 | – | 96.13 ± 10.69 | 2.25 | 2.23 | – | 20.66 ± 8.49 | – | – | – | – | – | – | – | – | – | > 14200
12 | COc1cccc(C(=O)NNC(=O)COc2ccc(C)cc2Br)c1 [SR-01000369718] | – | – | – | – | – | 111.46 ± 12.99 | – | – | – | – | 5.36 | 5.36 | 0.33 | 0.48 | 5.9 | 1.98 | 1.98 | 7.35 ± 13.00 | > 14100 | –
13 | C=C1C(CC(=C)C2Cc3ccc4ccccc4c3C2)=CC(c2ccccc2)=CC1C (stereo not shown) [SR-00000002785] | – | – | – | – | – | 80.59 ± 9.85 | 2.62 | 2.62 | – | −10.50 ± 3.98 | 4.66 | 4.66 | 0.95 | 0.32 | – | – | – | – | – | > 14100
14 | O=C(CCCOc1ccc(Cl)cc1Cl)NNC(=O)Cc1ccccc1 [SR-01000067982] | – | – | – | – | – | 88.62 ± 11.28 | 1.37 | 1.37 | – | 10.05 ± 3.22 | 3.55 | 3.54 | 0.94 | 0.39 | 98.6 | – | – | – | – | > 14800
15 | O=C(Cn1nc(Cc2ccncc2)c2ccccc2c1=O)N1CCCc2ccccc21 [SR-01000151917] | 0.28 | 1.73 | 3.34 | 3.33 | 537 | 110.81 ± 5.15 | 1.92 | 1.92 | – | 10.70 ± 4.71 | – | – | – | – | – | – | – | – | – | > 14100

Source: patent US20250099420A1, “SMALL MOLECULE MODULATORS OF GPR139 COMPLEX” (University of Florida Research Foundation, Incorporated, priority 2022, published 2025)
